Measurements: US20110257014A1, “1-(Heteroaryl)pyrazol-4-ylacetic acids, processes for their preparation and their use as herbicides and plant growth regulators” (BAYER CROPSCIENCE AG, priority 2009, published 2011)

What was measured:
Assay in all cases: Post-emergence herbicidal effect, greenhouse pot test
Assay type in all cases: in vivo
Conditions in all cases: 0.32 kg of active substance per hectare, rated visually after about 3 weeks
[1] = tested on: Echinochloa crus galli
Procedure: (§1) Seeds of monocotyledonous and dicotyledonous weed and crop plants are placed in sandy loam in wood-fiber pots, covered with soil and cultivated in a greenhouse under good growth conditions. 2 to 3 weeks after sowing, the test plants are treated at the one-leaf stage. The compounds (I) according to the invention, formulated in the form of wettable powders (WP), are then applied by spraying as aqueous suspension or emulsion at a water application rate of 600 I/ha (converted) with the addition of 0.2% of wetting agent to the green parts of the plants. After the test plants have been kept in the greenhouse under optimum growth conditions for about 3 weeks, the activity of the preparations is rated visually in comparison to untreated controls (herbicidal activity in percent (%): 100% activity=the plants have died, 0% activity=like control plants).

[2] = tested on: Avena fatua
Procedure: as §1

[3] = tested on: Abutilon theophrasti
Procedure: as §1

[4] = tested on: Alopecurus myosuroides
Procedure: as §1

Measured: herbicidal activity

COC(=O)Cc1c(C)nn(-c2cncn2C)c1-c1ccc(Cl)cc1 [Compound 5-1107, methyl [5-(4-chlorophenyl)-3-methyl-1-(1-methyl-1H-imidazol-5-yl)-1H-pyrazol-4-yl]acetate]
≥ 80%: all assays above
